Test results published in patent publication US6765129B1, “Overexpression of a DNA sequence coding for a 1-desoxy-d-xylulose-5-phosphate reductoisomerase in plants” (BASF Aktiengesellschaft, priority 1999, dated 2004).

Legend:
mevalonate formation = details: cited from earlier work
[1] = system: Arabidopsis thaliana DXPRI; test: DXPRI enzyme test (heterologously expressed in E. coli, TLC/autoradiography of 14C product); type: biochemical
Protocol: The transgenic strain was incubated in the growth medium “2×YT” (per 1 l: Bacto-tryptone 16 g, yeast extract 10 g, NaCl 5 g). The cells were grown at 37° C. to an OD560 nm of 0.6. After IPTG (1 MM) had been added, they were cultured for a further 10 minutes at 37° C. and then for a further 4 hours at 22° until they were harvested. The cells were centrifuged off and washed in 1% NaCl. After the cells had been disrupted (50 to 500 ml of cell culture (OD560 nm of 1.0) by means of a French press, a crude protein extract was used for enzyme tests (in 4 ml of extraction buffer (Tris/HCl (pH 7.5) 100 mM, MgCl2 5 mM, DTT 2 mM, PMSF 0.1 mM). For storage, the crude extracts together with 20% of glycerol were frozen at −20° C.
For the enzyme test, 15 μl (diluted to 1 to 7 mg of protein/ml) of protein extract were incubated for 30 minutes at 30° C. with MnCl2 (1 mM), NaF (5 mM), NADPH2 (0.5 mM) and ^14C-1-deoxy-D-xylulose-5-phosphate (0.25 mM, 3 kBq). The reaction was stopped at 100° C. (30 seconds) by adding CaCl2 (to 100 mM) and alkaline phosphatase (0.5 units). The product was dephosphorylated for 2 hours at 30° C. Detection was carried out by subjecting the product to separation by thin-layer chromatography on silica gel 60 (Merck) with acetone/ethyl acetate/water (50+50+2) with subsequent evaluation by Instant Imager. […]

barley seedlings = test: plant assay: pigment neogenesis in etiolated barley seedlings; type: in vivo; details: barley seedlings subjected to fosmidomycin treatment, FIG. 8
Description: Since this biosynthetic pathway is a metabolic pathway which is exclusively located in the chloroplasts, it offers optimal target enzymes for the development of inhibitors. Since, according to current knowledge, no enzyme which is identical with, or similar to, Arabidopsis thaliana DXPRI is present in other higher organisms, it can be assumed that inhibitors should have a very specific action on plants. The site of action of an inhibitor, namely fosmidomycin (3-(N-formyl-N-hydroxyamino)propylphosphonic acid; Fujisawa Pharmaceutical Co.) was identified as being a DXPRI. […] The following abbreviations were used in FIG. 7: DOX=1-deoxy-D-xylulose, ME=methylerythritol. The same action is found in a plant assay in which barley seedlings are subjected to fosmidomycin treatment and then examined for their chlorophyll and carotenoid content.
FIG. 8. Effect of fosmidomycin on pigment neogenesis in etiolated barley seedlings.

Compound | sterol biosynthesis in the cytoplasma (mevalonate formation; cytoplasma) | prenyl lipid formation in the plastids (mevalonate formation; plastids) | inhibition of the enzymatic activity of DXPRI ([1]; biochemical assay, FIG. 7) | formation of ME (methylerythritol) ([1]; fosmidomycin at various concentrations, crude protein extract, 14C-1-deoxy-D-xylulose-5-phosphate substrate) | carotenoid content (barley seedlings) | chlorophyll content (barley seedlings)
mevinolin | inhibition | remains unaffected |  |  |  | 
O=CN(O)CCCP(=O)(O)O [fosmidomycin, 3-(N-formyl-N-hydroxyamino)propylphosphonic acid] |  |  | efficient inhibition | inhibited efficiently | greatly reduced | greatly reduced
